In US20080274076A1, “Composition for Use in Controlling Aedes Aegypti Mosquitoes” (priority 2005, published 2008):

What was measured:
Aedes aegypti mosquitoes [1] = assay: field test of the luring effect: open water tanks, one treated with heneicosane solution; type: in vivo
Protocol: Fifteen open tanks with water filled to the top were kept in the open. All the tanks were made of same material, were of the same size and contained same amount of water from the same source. The tanks were numbered consecutively and allowed to remain for a week.
All the fifteen tanks were drained of water and thoroughly cleaned. Subsequently, they were filled with water from the same source. In tank No. 1, a predetermined amount of a solution of heneicosane in n-hexane (1% w/v) was added. After fifteen days, water from each tank was analysed.
Example No. 4 was repeated 14 times with heneicosane being added in tank Nos. 2 to 15 consequentially.
Example Nos. 4 and 5 were repeated with heneicosane dissolved in n-pentane.
The above example was repeated with varying concentrations of heneicosane in the solvent.

Aedes aegypti mosquitoes [2] = assay: oviposition attractant effect of semio-chemicals identified in larval conditioned water; type: in vivo
Description: The present invention also relates to a process for the preparation of compositions for use in lure and/or killing of Aedes aegypti mosquitoes. The present invention is based on the unexpected finding that Aedes aegypti mosquitoes tend to lay eggs in stagnant water where eggs of the same species of mosquitoes had been laid previously. This led the inventors to analyse various samples of water which in turn led to the finding that water in which eggs had previously been laid by Aedes aegypti mosquitoes and which had hatched into larval stage contained various semio-chemicals. Analysis of these semio-chemicals identified them as heneicosane, nonacosane, octadecane, isopropyl myristate and docosane. […] When, stagnant water in which Aedes aegypti mosquitoes had bred earlier was left untouched the incidence of further egg laying in the same water and thriving of larval population increased. […]
Aedes aegypti mosquitoes are bred and the water is collected for isolation where the mosquitoes are at larval stage. […] The extractant is analysed by various spectral techniques like IR, NMR and GCMS and the five semio-chemicals identified are heneicosane, nonacosane, octadecane, isopropyl myristate and decosane.

SMILES: CCCCCCCCCCCCCCCCCCCCC [heneicosane, n-heneicosane]
- attraction of mosquitoes to lay eggs in the treated tank (Aedes aegypti mosquitoes [1]; Example 4 repeated 14 times with heneicosane added in tank Nos. 2 to 15 consequentially): each time the tank containing heneicosane attracted Aedes aegypti mosquitoes to lay their eggs therein
- luring result with another solvent (Aedes aegypti mosquitoes [1]; Example Nos. 4 and 5 repeated with heneicosane dissolved in n-pentane): The results were exactly the same
- mosquito larvae found in tanks (egg laying lured to treated tank) (Aedes aegypti mosquitoes [1]; field conditions, 15 open tanks, solution of heneicosane in n-hexane (1% w/v) added to tank No. 1, after fifteen days): only tank No. 1 containing the heneicosane contained mosquito larvae
- effectiveness as oviposition attractant among the five identified semio-chemicals (Aedes aegypti mosquitoes [2]; compared with nonacosane, octadecane, isopropyl myristate and docosane): most effective oviposition attractant
- site of egg laying, stagnant water versus water containing heneicosane (Aedes aegypti mosquitoes [2]; stagnant water kept alongside water containing heneicosane): the entire egg laying took place only in water containing heneicosane
